Measured values as given in ChEMBL document CHEMBL5291721, “A preclinical secondary pharmacology resource illuminates target-adverse drug reaction associations of marketed drugs” (Nat Commun, 2023).

Key:
Acetylcholinesterase = Acetylcholinesterase (Homo sapiens, UniProt P22303); format: functional
[1] = biological target: T1, Muscarinic acetylcholine receptor M2 (Homo sapiens, UniProt P08172); format: functional, cell-based
T1 sequence (P08172 whole entry): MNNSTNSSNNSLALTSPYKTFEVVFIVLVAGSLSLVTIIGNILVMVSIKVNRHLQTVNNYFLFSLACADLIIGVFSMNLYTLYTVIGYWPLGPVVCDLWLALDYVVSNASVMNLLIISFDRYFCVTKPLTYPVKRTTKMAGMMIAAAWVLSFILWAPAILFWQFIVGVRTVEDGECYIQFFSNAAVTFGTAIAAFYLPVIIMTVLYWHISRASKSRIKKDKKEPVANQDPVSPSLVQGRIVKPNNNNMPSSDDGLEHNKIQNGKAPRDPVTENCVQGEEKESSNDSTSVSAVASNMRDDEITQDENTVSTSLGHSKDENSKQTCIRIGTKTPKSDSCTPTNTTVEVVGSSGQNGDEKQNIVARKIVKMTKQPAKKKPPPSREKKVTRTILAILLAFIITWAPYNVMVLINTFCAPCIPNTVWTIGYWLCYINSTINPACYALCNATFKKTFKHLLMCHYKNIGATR

[2] = biological target: T2, 5-hydroxytryptamine receptor 2B (Homo sapiens, UniProt P41595); format: functional, cell-based
[3] = biological target: T2, 5-hydroxytryptamine receptor 2B; format: functional, cell-based; remark: listed apart in the source
[4] = biological target: T3, 5-hydroxytryptamine receptor 2C (Homo sapiens, UniProt P28335)
T3 sequence (P28335 whole entry): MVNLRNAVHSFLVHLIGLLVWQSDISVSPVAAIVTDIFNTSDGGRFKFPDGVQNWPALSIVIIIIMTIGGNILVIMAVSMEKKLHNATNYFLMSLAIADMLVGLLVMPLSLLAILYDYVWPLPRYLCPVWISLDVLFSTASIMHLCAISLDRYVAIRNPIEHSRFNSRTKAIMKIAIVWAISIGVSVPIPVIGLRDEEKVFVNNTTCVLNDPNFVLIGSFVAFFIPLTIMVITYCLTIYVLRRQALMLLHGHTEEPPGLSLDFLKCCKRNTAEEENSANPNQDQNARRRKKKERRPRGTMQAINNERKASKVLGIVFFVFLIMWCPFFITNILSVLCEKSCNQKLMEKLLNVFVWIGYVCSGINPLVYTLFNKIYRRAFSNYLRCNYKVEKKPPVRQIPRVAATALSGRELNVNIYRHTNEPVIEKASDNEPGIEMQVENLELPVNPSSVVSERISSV

[5] = biological target: T4, Amine oxidase [flavin-containing] A (Homo sapiens, UniProt P21397); format: functional
T4 sequence (P21397 whole entry): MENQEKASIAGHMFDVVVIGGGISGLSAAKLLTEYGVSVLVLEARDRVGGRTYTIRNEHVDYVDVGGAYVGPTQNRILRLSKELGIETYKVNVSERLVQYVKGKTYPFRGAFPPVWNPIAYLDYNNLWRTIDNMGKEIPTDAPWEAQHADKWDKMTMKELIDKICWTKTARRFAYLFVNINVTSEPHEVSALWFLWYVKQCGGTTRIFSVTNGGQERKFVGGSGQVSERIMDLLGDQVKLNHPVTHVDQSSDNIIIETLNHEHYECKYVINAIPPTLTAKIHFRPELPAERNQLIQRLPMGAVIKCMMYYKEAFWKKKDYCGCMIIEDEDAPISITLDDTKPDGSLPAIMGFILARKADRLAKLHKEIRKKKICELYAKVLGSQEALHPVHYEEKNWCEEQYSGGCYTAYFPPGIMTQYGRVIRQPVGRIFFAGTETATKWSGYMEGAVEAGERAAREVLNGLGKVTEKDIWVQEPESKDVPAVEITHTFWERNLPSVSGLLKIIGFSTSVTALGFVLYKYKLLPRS

Mu-type opioid receptor = Mu-type opioid receptor (Homo sapiens, UniProt P35372)
[6] = biological target: cGMP-inhibited 3',5'-cyclic phosphodiesterase 3A (Homo sapiens, UniProt Q14432); format: functional
[7] = biological target: 3',5'-cyclic-AMP phosphodiesterase 4A (Homo sapiens, UniProt P27815); format: functional
Progesterone receptor = biological target: T5, Progesterone receptor (Homo sapiens, UniProt P06401)
T5 sequence (P06401 whole entry): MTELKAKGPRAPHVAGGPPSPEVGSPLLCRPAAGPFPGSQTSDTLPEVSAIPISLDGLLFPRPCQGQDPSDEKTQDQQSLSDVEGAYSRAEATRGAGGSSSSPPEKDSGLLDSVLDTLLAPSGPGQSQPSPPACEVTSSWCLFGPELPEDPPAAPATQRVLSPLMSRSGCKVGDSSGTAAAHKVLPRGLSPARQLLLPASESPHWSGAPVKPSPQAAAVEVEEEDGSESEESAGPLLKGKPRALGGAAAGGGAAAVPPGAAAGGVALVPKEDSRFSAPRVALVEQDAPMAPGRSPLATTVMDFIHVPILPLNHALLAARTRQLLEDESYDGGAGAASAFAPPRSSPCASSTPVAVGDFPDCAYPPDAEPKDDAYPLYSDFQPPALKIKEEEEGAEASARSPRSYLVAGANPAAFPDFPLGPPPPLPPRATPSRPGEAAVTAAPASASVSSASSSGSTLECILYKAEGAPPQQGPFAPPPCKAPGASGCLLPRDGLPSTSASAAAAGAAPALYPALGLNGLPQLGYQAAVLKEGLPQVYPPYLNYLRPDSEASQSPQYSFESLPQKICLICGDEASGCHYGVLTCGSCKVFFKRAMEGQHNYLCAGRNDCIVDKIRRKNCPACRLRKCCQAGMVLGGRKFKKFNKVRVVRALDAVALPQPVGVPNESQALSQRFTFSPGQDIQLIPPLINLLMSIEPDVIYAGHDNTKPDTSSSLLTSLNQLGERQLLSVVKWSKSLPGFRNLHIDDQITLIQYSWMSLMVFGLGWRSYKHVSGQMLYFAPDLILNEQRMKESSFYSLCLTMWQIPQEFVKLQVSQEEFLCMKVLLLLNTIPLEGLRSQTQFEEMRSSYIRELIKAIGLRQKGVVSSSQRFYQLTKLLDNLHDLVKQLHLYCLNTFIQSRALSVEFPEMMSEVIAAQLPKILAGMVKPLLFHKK

[8] = biological target: Prostaglandin G/H synthase 1 (Homo sapiens, UniProt P23219); format: functional
[9] = biological target: Sodium-dependent dopamine transporter (Homo sapiens, UniProt Q01959)
Also: assay procedure not described here.

Sodium-dependent dopamine transporter, sequence (Q01959 whole entry): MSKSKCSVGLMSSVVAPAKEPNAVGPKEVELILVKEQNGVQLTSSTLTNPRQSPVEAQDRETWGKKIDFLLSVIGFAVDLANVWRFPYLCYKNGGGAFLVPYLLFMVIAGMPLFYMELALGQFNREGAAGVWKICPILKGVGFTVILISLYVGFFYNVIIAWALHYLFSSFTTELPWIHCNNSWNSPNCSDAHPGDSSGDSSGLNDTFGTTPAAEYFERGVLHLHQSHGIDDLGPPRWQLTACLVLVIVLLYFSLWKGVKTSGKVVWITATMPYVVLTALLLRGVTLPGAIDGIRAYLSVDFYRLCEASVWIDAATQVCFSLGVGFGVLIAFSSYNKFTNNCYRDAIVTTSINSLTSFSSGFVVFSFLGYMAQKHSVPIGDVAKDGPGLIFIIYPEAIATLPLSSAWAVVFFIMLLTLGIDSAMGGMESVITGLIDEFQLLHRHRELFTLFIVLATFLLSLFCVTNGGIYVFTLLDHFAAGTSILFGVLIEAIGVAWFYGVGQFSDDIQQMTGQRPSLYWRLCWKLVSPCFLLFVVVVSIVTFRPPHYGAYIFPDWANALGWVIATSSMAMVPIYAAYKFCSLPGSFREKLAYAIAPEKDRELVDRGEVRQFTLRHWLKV
3',5'-cyclic-AMP phosphodiesterase 4A, sequence (P27815 whole entry): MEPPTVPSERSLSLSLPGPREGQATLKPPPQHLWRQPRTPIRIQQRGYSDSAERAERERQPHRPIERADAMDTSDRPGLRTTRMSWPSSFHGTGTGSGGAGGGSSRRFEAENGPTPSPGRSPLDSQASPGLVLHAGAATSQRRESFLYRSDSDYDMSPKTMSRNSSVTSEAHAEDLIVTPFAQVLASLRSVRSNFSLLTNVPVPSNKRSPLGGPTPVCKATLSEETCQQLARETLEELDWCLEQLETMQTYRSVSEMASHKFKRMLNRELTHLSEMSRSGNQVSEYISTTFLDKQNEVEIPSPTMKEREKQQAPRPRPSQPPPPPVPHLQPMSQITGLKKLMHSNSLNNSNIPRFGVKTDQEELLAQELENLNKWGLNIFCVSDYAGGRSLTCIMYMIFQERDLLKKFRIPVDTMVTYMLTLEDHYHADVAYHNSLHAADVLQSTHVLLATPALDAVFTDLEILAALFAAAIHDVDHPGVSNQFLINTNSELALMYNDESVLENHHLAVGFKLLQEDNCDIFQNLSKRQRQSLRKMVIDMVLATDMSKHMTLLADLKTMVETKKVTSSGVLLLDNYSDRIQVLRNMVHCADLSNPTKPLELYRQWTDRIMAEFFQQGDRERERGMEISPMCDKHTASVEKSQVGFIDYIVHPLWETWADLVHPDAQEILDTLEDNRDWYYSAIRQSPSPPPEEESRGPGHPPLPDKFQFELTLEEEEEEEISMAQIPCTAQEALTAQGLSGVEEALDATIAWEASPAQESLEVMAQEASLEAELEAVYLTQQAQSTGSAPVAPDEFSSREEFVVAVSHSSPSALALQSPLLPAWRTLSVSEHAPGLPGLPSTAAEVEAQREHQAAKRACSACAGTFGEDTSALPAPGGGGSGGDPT
T2 sequence (P41595 whole entry): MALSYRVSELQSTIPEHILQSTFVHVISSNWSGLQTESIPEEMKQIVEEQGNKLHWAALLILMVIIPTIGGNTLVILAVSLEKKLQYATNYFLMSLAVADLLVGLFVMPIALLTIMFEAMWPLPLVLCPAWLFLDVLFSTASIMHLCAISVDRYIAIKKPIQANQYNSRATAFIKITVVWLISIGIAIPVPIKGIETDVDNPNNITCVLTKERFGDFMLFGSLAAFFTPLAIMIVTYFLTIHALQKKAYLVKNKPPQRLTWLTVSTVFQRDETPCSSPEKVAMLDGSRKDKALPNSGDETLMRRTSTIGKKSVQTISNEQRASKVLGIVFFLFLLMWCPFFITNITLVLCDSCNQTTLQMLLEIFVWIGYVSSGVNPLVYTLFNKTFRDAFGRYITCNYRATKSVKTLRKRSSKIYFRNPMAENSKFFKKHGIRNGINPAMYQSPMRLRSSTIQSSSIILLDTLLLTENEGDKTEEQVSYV
Mu-type opioid receptor, sequence (P35372 whole entry): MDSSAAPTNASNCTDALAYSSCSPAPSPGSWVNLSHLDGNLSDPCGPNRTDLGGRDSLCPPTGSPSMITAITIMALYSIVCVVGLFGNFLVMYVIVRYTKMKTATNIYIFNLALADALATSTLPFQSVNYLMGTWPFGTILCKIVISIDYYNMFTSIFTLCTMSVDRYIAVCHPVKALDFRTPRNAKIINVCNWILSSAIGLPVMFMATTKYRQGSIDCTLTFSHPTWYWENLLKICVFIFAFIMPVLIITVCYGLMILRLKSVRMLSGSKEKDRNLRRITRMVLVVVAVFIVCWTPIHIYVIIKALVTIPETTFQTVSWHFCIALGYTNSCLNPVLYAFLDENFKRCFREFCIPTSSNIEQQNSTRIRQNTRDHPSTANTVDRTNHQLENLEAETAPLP
Prostaglandin G/H synthase 1, sequence (P23219 whole entry): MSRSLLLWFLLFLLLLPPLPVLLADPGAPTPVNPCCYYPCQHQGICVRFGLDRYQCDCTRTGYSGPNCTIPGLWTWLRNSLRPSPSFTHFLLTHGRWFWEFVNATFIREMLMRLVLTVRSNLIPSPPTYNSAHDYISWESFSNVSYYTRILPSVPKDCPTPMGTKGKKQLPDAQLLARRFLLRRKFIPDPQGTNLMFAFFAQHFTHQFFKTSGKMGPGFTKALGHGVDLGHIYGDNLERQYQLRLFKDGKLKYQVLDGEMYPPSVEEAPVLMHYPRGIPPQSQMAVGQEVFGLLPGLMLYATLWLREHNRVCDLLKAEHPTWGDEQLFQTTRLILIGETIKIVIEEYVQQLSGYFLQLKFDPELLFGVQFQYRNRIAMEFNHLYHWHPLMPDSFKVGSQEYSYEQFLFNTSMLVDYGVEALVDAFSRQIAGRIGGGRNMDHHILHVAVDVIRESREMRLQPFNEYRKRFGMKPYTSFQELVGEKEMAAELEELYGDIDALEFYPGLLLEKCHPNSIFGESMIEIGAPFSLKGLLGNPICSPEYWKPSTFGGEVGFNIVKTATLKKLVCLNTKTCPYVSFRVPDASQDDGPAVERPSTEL
cGMP-inhibited 3',5'-cyclic phosphodiesterase 3A, sequence (Q14432 whole entry): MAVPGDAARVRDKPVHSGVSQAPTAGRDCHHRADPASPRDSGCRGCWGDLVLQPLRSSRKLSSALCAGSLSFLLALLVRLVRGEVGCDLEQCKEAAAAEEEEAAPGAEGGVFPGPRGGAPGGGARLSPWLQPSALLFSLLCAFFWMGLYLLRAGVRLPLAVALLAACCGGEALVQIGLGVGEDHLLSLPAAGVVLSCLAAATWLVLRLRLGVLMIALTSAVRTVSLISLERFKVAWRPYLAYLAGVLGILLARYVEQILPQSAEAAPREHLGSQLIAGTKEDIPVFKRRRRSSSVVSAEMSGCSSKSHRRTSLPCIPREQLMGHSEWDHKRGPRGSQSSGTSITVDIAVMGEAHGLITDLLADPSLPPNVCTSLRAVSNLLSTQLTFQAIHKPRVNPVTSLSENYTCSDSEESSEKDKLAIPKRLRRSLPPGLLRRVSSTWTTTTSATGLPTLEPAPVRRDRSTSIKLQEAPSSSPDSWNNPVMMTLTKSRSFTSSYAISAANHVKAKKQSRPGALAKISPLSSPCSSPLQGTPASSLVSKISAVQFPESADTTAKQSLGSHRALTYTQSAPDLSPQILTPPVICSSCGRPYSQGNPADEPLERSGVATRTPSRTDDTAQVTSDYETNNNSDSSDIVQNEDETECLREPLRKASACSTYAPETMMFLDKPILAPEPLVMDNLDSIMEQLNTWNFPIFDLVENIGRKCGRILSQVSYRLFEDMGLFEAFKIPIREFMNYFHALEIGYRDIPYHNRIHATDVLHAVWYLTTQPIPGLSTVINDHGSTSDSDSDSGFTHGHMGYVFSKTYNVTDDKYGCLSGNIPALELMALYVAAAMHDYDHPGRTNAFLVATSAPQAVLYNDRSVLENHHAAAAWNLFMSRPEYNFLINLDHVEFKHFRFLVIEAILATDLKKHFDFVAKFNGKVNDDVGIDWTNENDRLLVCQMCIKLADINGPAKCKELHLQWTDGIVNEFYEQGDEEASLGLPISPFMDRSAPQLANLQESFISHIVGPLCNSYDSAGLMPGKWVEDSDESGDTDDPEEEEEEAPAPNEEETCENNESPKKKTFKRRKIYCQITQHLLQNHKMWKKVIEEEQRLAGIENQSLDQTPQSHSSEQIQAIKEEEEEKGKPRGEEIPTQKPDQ
Acetylcholinesterase, sequence (P22303 whole entry): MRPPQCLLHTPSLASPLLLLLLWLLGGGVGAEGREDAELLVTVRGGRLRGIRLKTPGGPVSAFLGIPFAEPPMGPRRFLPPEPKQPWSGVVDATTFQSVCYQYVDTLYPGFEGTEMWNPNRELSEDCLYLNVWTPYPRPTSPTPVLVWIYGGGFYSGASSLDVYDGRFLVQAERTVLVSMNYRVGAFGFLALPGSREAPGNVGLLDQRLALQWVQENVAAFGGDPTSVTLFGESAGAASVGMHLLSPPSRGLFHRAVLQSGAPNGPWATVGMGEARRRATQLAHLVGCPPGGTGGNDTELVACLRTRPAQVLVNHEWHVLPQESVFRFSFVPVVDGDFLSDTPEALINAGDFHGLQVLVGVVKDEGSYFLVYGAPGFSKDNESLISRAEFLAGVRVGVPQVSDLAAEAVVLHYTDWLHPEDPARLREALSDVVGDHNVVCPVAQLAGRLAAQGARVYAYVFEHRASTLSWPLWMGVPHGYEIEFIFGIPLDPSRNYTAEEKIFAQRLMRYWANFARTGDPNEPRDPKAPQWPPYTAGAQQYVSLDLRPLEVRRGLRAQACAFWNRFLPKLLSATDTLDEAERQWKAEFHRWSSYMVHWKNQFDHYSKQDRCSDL

SMILES	AC50 (Acetylcholinesterase)	AC50 [1]	AC50 [2]	AC50 [3]	AC50 [4]	AC50 [5]	AC50 (Mu-type opioid receptor)	AC50 [6]	AC50 [7]	AC50 (Progesterone receptor)	AC50 [8]	AC50 [9]
CCCc1nc2c(C)cc(-c3nc4ccccc4n3C)cc2n1Cc1ccc(-c2ccccc2C(=O)O)cc1	> 30 µM	> 30 µM	> 30 µM	> 30 µM	> 30 µM	> 30 µM	2.56 µM	29.9 µM	13.5 µM	> 30 µM	> 30 µM	> 30 µM
Cc1cc(C2CCCCC2)n(O)c(=O)c1 [CICLOPIROX]	> 30 µM	> 30 µM	–	> 30 µM	–	> 30 µM	> 30 µM	> 30 µM	> 30 µM	> 30 µM	> 30 µM	> 30 µM
C[N+](C)(C)CCOP(=O)(O)OP(=O)([O-])OC[C@H]1O[C@@H](n2ccc(N)nc2=O)[C@H](O)[C@@H]1O [CITICOLINE]	> 30 µM	> 30 µM	> 30 µM	> 30 µM	> 30 µM	> 30 µM	> 30 µM	> 30 µM	> 30 µM	> 30 µM	> 30 µM	> 30 µM
O=C(O)Cc1ccccc1Oc1ccc(Cl)cc1Cl [FENCLOFENAC]	> 30 µM	> 10 µM	> 10 µM	> 30 µM	> 30 µM	> 30 µM	> 30 µM	> 30 µM	> 30 µM	> 30 µM	> 30 µM	> 30 µM
Cc1ccc(C)c(OCCCC(C)(C)C(=O)O)c1 [GEMFIBROZIL]	> 30 µM	> 10 µM	> 10 µM	> 30 µM	> 30 µM	> 30 µM	> 30 µM	> 30 µM	> 30 µM	> 30 µM	> 30 µM	> 30 µM
COc1cc(C(C)=O)ccc1OCCCN1CCC(c2noc3cc(F)ccc23)CC1 [ILOPERIDONE]	15.9 µM	> 30 µM	> 30 µM	> 30 µM	0.803 µM	> 30 µM	4.11 µM	> 30 µM	> 30 µM	> 30 µM	> 30 µM	5.94 µM
CC(C)C[C@H](NC(=O)[C@@H](O)[C@H](N)Cc1ccccc1)C(=O)O [UBENIMEX]	> 30 µM	> 30 µM	> 30 µM	> 30 µM	> 30 µM	> 30 µM	> 30 µM	> 30 µM	> 30 µM	> 30 µM	> 30 µM	> 30 µM
O=C1Cc2cc(CCN3CCN(c4nsc5ccccc45)CC3)c(Cl)cc2N1 [ZIPRASIDONE]	> 30 µM	> 10 µM	> 30 µM	> 30 µM	–	> 30 µM	5.06 µM	> 30 µM	> 30 µM	> 30 µM	> 30 µM	0.0875 µM
